Measured values as given in PMC9986306, “Beyond CBD: Inhibitory effects of lesser studied phytocannabinoids on human voltage-gated sodium channels” (Frontiers in Physiology, 2023).
Marks after values point to notes of the source that are not given here.

Legend:
[1] = biological target: T1, human NaV1.7 channel (SCN9A, CHO cells) (Homo sapiens, UniProt Q15858); test: Planar patch-clamp, inhibition of peak sodium current (IC50 protocol); assay type: cell-based; settings: for Effect on peak sodium current (in words): NaV1.7, 0.1–100 μM, no maximal inhibition at 100 µM
T1 construct: expressed in transfected cells
Protocol: (§1) HEK293T cells stably expressing SCN1A or SCN2A and CHO cells stably expressing SCN8A or SCN9A were maintained as previously described ([Richards et al., 2018]; [Milligan et al., 2022]).
(§2) Patch-clamp recordings were made using a Patchliner® (Nanion Technologies, Munich, Germany) in the whole-cell configuration as previously described ([Richards et al., 2018]; [Milligan et al., 2022]). Briefly, cells were prepared in suspension at a density of 1 × 10^6-5 × 10^7 cells/mL. The external recording solution comprised (in mM): 140 NaCl, 4 KCl, 1 MgCl2, 2 CaCl2, 5 D-glucose, 10 HEPES, pH 7.4 with NaOH, ∼295 mOsm. The internal recording solution comprised (in mM): 50 CsCl, 60 CsF, 10 NaCl, 20 EGTA, 10 HEPES, pH 7.2 with CsOH, ∼285 mOsm. Medium single-hole planar NPC-16 chips with an average resistance of ∼2.5 MΩ were used. Chip and whole-cell capacitance were fully compensated, and 50% series resistance compensation applied. Recordings were acquired at 50 kHz with the low pass filter set to 10 kHz in PATCHMASTER (HEKA Instruments, NY, United States) and performed at 27°C. Offline analysis was performed using Microsoft Excel, MatLab R2019a (MathWorks) and GraphPad Prism 8 (Molecular Devices).
(§3) To determine half-maximal inhibitory concentrations (IC50), cells were held at −80 mV, stepped to −120 mV for 200 ms followed by 50 ms test depolarization to 0 mV every 2 s for 30 s in the presence of vehicle control (DMSO). The cells were then exposed to an individual phytocannabinoid (CBD, CBGA, CBDVA, CBG, CBCA or CBC) at concentrations between 0.1 and 100 μM, sequentially for 5 min. Currents for individual cells were averaged over 24 s periods directly before application and following a 5 min exposure of compound. Leak subtraction was applied before normalization of current amplitude. Normalized mean data were fit to the Hill equation.

[2] = biological target: T2, human NaV1.6 channel (SCN8A, CHO cells) (Homo sapiens, UniProt Q9UQD0); test: as above; assay type: cell-based; settings: for Effect on peak sodium current (in words): NaV1.6, 0.1–100 μM, no maximal inhibition at 100 µM
T2 construct: expressed in transfected cells
Protocol: as §1, §2, §3

[3] = biological target: T3, human NaV1.2 channel (SCN2A, HEK293T cells) (Homo sapiens, UniProt Q99250); test: as above; assay type: cell-based; settings: for Effect on peak sodium current (in words): NaV1.2, 0.1–100 μM, no maximal inhibition at 100 µM
T3 construct: expressed in transfected cells
Protocol: as §1, §2, §3

[4] = biological target: T4, human NaV1.1 channel (SCN1A, HEK293T cells) (Homo sapiens, UniProt P35498); test: as above; assay type: cell-based; settings: NaV1.1; 0.1–100 μM, no maximal inhibition at 100 µM
T4 construct: expressed in transfected cells
Protocol: as §1, §2, §3

[5] = test system: electrically induced seizure model; parameters: method as in Davis and Hatoum, 1983; settings: ref Davis and Hatoum, 1983; cited from earlier work
[6] = test system: Scn1a+/− mouse model of DS; parameters: method as in Anderson et al., 2021a; Anderson et al., 2021b; settings: Scn1a+/− mice, ref Anderson et al., 2021a, 2021b; cited from earlier work
[7] = biological target: T1, human NaV1.7 channel (SCN9A, CHO cells); test: Planar patch-clamp, biophysical properties (activation, SSFI, recovery from SSFI); assay type: cell-based; settings: change vs vehicle DMSO at IC50 concentration (CBD 11.9 μM, CBGA 16.4 μM, CBDVA 60 μM)
Protocol: as §1, §2
(§4) Voltage protocols were used, as previously described ([Richards et al., 2018]). Briefly, to study the voltage-dependence of activation, cells were held at −120 mV and depolarized to test potentials, in 5 mV increments, between −120 mV and +50 mV for 100 ms. To study steady-state fast inactivation, cells were held at conditioning pre-pulse potentials ranging from −120 mV to +30 mV in 5 mV increments from a holding potential of −120 mV and a test pulse at 5 mV for 20 ms. Recovery from fast inactivation was studied by pre-pulsing the cells to 0 mV from a holding potential of −120 mV for 50 ms, to fully inactivate channels. The voltage was then stepped back to the holding potential for variable interpulse intervals (ipi from 0 to 39 ms in 3 ms increments). To test channel availability, the voltage was stepped to 0 mV for 50 ms.
(§5) To examine the voltage-dependence of activation, normalized current-voltage (I-V) relationships were converted to conductance (G) using the following equation: G = I/(V−V r ) where Vr is the reversal potential for Na^+. The voltage-dependence of conductance and availability were normalized and fitted to a Boltzmann equation: G = 1/(1 + exp [(V−V 0.5)/a]), where a is the slope of the half-maximum, V is the potential of the given pulse, and V 0.5 is the potential for the half-maximal activation/inactivation. The time course of inactivation was fitted to a single exponential function I/Imax = I0+A*exp (-t-t0/τ)+C, where I0 is the non-inactivating component, Imax is the peak current, t is time, and A is the component for the time constant τ. Time constants were plotted against voltage and the data fitted with a decaying exponential equation Y = span*exp (−K*x)+plateau, where span is the starting point of the curve, K is the decay factor, plateau is the value the curve decays to, and x is time. To measure recovery from inactivation, normalized currents were plotted against ipi and data fitted with equation I/I max = 1-exp/(rc + x), where I max is maximal current; rc recovery rate constant; x is time. Peak current (I) was plotted as fractional recovery against the recovery period by normalizing to the maximum current (Imax) during the conditioning potentials.

[8] = biological target: T2, human NaV1.6 channel (SCN8A, CHO cells); test: as above; assay type: cell-based; settings: change vs vehicle DMSO at IC50 concentration (CBD 16.6 μM, CBGA 12.0 μM, CBDVA 24.1 μM)
Protocol: as §1, §2, §4, §5

[9] = biological target: T3, human NaV1.2 channel (SCN2A, HEK293T cells); test: as above; assay type: cell-based; settings: change vs vehicle DMSO at IC50 concentration (CBD 18.4 μM, CBGA 14.7 μM, CBDVA 60 μM)
Protocol: as §1, §2, §4, §5

[10] = biological target: T4, human NaV1.1 channel (SCN1A, HEK293T cells); test: as above; assay type: cell-based; settings: change vs vehicle DMSO at IC50 concentration (CBD 18.5 μM, CBGA 13.6 μM, CBDVA 50 μM)
Protocol: as §1, §2, §4, §5

[11] = parameters: method as in Anderson et al., 2019b; settings: CBDVA; ref Anderson et al., 2019b; cited from earlier work
[12] = test system: PTZ-induced acute seizure model; parameters: method as in Hill et al., 2014; settings: ref Hill et al., 2014; cited from earlier work
sodium channels = test system: sodium channels; parameters: method as in Hill et al., 2014; Ghovanloo et al., 2022; settings: different voltage protocols or model systems; ref Hill et al., 2014; Ghovanloo et al., 2022; read-out: IC50 (low affinity inhibitor of sodium channels); cited from earlier work

T1 sequence (Q15858 whole entry): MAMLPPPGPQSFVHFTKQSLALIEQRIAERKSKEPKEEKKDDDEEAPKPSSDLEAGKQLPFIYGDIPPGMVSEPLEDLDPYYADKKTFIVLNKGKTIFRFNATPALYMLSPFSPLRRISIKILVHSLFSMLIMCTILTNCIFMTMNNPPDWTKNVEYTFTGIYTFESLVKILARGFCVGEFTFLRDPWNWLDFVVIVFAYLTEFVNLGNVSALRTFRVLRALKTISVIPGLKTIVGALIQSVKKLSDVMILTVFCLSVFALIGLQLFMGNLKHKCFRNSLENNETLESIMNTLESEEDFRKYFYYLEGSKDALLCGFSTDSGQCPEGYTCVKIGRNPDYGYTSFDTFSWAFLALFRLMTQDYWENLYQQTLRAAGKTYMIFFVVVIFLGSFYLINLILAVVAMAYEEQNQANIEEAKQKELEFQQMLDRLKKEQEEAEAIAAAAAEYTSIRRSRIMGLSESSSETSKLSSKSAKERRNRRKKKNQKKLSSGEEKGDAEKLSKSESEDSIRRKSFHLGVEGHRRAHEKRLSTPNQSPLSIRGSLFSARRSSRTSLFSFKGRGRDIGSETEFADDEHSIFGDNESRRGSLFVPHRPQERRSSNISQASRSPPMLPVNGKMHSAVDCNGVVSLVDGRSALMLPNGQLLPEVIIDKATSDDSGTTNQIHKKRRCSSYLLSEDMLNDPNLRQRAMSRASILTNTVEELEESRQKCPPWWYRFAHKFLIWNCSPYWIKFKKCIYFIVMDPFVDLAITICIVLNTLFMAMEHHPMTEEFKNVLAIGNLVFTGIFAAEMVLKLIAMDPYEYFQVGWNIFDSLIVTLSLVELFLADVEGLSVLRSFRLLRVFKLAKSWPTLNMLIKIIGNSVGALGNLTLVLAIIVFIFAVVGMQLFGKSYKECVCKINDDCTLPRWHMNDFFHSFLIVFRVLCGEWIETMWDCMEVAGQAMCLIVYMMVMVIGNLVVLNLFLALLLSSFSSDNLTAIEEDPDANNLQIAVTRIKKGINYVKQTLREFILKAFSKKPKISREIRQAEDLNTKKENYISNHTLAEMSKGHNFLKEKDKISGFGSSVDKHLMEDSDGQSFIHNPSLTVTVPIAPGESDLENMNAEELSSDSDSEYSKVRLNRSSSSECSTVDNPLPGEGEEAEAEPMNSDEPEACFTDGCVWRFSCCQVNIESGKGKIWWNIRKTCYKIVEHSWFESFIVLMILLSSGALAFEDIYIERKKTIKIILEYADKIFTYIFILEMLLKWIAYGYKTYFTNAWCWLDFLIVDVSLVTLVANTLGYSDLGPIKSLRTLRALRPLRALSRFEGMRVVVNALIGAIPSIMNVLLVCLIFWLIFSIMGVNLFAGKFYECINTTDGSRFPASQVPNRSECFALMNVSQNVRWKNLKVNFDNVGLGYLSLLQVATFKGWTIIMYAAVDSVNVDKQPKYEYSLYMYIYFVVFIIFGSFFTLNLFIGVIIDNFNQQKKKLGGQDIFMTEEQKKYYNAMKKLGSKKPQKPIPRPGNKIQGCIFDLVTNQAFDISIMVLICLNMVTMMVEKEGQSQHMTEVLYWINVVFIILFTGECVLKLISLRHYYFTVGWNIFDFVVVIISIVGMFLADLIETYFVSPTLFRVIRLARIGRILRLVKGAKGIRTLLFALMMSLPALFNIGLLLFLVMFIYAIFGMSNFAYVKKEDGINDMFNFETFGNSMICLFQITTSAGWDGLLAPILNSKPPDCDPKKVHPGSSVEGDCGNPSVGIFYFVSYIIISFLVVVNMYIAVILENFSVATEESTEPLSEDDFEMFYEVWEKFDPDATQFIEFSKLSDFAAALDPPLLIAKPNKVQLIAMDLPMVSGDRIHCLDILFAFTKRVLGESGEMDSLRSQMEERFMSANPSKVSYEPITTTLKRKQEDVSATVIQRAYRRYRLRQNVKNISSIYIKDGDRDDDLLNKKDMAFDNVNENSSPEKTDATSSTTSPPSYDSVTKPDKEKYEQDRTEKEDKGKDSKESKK
T2 sequence (Q9UQD0 whole entry): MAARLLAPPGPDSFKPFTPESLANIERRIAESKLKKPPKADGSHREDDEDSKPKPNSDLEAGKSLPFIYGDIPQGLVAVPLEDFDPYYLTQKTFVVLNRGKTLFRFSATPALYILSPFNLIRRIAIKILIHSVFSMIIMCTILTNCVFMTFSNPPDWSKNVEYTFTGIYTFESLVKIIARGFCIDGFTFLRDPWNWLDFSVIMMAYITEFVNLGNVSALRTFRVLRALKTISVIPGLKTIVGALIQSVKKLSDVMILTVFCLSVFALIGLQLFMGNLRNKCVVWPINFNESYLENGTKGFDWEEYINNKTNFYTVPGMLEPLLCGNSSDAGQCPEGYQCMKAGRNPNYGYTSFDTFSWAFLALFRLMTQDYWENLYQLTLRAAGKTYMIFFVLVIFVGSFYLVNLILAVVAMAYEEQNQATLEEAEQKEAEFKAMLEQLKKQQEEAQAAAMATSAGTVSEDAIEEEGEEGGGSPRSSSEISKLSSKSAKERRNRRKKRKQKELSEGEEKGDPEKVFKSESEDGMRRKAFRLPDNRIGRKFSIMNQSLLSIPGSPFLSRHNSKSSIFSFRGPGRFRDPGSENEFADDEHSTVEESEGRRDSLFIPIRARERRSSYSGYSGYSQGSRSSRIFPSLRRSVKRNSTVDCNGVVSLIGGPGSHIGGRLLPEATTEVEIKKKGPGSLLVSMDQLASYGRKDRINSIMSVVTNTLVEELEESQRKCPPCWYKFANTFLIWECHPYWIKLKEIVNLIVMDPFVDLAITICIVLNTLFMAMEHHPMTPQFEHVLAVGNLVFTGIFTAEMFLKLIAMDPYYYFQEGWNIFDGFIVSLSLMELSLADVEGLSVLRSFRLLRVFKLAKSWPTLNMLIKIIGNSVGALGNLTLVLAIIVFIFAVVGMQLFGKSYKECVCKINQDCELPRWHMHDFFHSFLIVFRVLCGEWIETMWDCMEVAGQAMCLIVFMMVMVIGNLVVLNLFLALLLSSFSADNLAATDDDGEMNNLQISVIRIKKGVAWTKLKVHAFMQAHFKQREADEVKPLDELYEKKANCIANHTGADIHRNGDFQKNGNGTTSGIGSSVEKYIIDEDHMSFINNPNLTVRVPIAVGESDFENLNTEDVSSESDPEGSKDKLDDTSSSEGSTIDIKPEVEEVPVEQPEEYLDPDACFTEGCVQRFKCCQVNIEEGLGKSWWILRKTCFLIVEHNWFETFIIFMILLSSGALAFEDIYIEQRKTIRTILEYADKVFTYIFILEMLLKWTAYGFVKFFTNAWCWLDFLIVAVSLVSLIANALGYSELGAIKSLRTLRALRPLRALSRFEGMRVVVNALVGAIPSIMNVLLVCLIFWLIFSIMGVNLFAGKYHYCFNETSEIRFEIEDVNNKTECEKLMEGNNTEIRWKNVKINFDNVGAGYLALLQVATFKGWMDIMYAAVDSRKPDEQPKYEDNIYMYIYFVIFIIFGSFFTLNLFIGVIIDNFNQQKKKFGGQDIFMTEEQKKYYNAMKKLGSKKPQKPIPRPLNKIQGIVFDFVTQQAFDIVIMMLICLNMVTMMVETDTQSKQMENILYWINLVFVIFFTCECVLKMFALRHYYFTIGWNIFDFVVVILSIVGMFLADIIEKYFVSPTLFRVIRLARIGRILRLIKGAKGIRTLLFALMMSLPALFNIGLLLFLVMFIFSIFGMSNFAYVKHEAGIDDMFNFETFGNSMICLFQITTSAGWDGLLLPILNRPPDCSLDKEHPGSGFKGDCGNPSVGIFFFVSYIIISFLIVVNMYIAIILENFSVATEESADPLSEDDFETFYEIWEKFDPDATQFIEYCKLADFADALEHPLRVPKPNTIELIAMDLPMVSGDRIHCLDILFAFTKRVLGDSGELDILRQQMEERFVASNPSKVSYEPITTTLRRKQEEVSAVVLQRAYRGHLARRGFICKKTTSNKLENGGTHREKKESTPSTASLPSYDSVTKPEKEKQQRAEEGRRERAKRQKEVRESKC

CCCCCc1cc(O)c2c(c1)OC(C)(CCC=C(C)C)C=C2 (centres unmarked) [CBC, cannabichromene]
Effect on peak sodium current (in words) [1]: modestly inhibited | Effect on peak sodium current (in words) [2]: modestly inhibited | Effect on peak sodium current (in words) [3]: modestly inhibited | Effect on peak sodium current (in words) [4]: modestly inhibited | Effect in electrically induced seizure model [5]: ineffective | Effect against hyperthermia-induced seizures [6]: anti-convulsant properties

CCCCCc1cc2c(c(O)c1C(=O)O)C=CC(C)(CCC=C(C)C)O2 (centres unmarked) [CBCA, cannabichromenic acid]
Effect on peak sodium current (in words) [1]: modestly inhibited | Effect on peak sodium current (in words) [2]: modestly inhibited | Effect on peak sodium current (in words) [3]: modestly inhibited | Effect on peak sodium current (in words) [4]: modestly inhibited | Effect against hyperthermia-induced seizures [6]: anti-convulsant properties

C=C(C)[C@@H]1CCC(C)=C[C@H]1c1c(O)cc(CCC)c(C(=O)O)c1O [CBDVA, cannabidivarinic acid]
Effect on peak sodium current (in words) [1]: only partially inhibited | IC50 ([1]; NaV1.7 peak current, 0.1–100 µM, 5 min exposure, mean ± SEM): ≥ 60 µM | Slope (Hill slope coefficient) ([2]; NaV1.6 concentration-response, mean ± SEM): 2.1 ± 0.5 | IC50 ([2]; NaV1.6 peak current, 0.1–100 µM, 5 min exposure, mean ± SEM): 24.1 ± 1.2 µM | Effect on peak sodium current (in words) [3]: only partially inhibited | IC50 ([3]; NaV1.2 peak current, 0.1–100 µM, 5 min exposure, mean ± SEM): ≥ 60 µM | Effect on peak sodium current (in words) [4]: only partially inhibited | Inactivation △ V0.5 inact ([7]; SSFI): −4.1 ± 0.9*** mV | Inactivation △ slope factor ([7]; SSFI): 1.6 ± 0.3**** | Activation △ Slope factor [7]: 0.9 ± 0.2*** | Activation △ V0.5 act [7]: 8.7 ± 1.8*** mV | Inactivation △ τinact SSFI at 5 mV [7]: 0.3 ± 0.07** | Inactivation △ V0.5 inact ([8]; SSFI): −3.0 ± 1.3* mV | Inactivation △ slope factor ([8]; SSFI): 0.5 ± 0.3 | Activation △ Slope factor [8]: 1.9 ± 0.7* | Activation △ V0.5 act [8]: 10.4 ± 2.9** mV | Inactivation △ τinact SSFI at 5 mV [8]: 0.3 ± 0.09** | Inactivation △ V0.5 inact ([9]; SSFI): −2.3 ± 1.5 mV | Inactivation △ slope factor ([9]; SSFI): 1.0 ± 0.2*** | Activation △ Slope factor [9]: 0.9 ± 0.2**** | Activation △ V0.5 act [9]: 11.5 ± 1.5**** mV | Inactivation △ τinact SSFI at 5 mV [9]: 0.4 ± 0.06**** | Inactivation △ V0.5 inact ([10]; SSFI): −10.1 ± 2.3** mV | Inactivation △ slope factor ([10]; SSFI): 1.8 ± 0.3*** | Activation △ Slope factor [10]: 1.7 ± 0.4*** | Activation △ V0.5 act [10]: 13.0 ± 1.6**** mV | Inactivation △ τinact SSFI at 5 mV [10]: 0.4 ± 0.05**** | Estimated brain concentration attained at anti-convulsant doses [11]: 5.5 µM | Effect against hyperthermia-induced seizures [6]: anti-convulsant properties

CCCCCc1cc(O)c(C/C=C(\C)CCC=C(C)C)c(O)c1 [CBG, cannabigerol]
Effect on peak sodium current (in words) [1]: modestly inhibited | Effect on peak sodium current (in words) [2]: modestly inhibited | Effect on peak sodium current (in words) [3]: modestly inhibited | Effect on peak sodium current (in words) [4]: modestly inhibited | Anti-convulsant effect in PTZ-induced acute seizure model [12]: ineffective | IC50 (sodium channels): 2 to 22 µM | Effect against hyperthermia-induced seizures [6]: ineffective
